In ChEMBL document CHEMBL5674860, “Optimized Dual-Glo Assay to identify co-culture-induced drug vulnerabilities in 3D CRC models” (2024):

Experiments:
Format in all cases: functional, Homo sapiens
Set-up in all cases: dose or concentration left out as unconfirmed
Colon cancer organoid [1] = test: Optimized Dual-Glo assay to identify co-culture induced drug vulnerabilities using donated chemical probes and chemogenomics kinase set in O14 CRC organoid and F14 CAF mono and co-culture. […] Cell viability is reported both mono and co-culture models.
Colon cancer organoid [2] = test: Optimized Dual-Glo assay to identify co-culture induced drug vulnerabilities using donated chemical probes and chemogenomics kinase set in O06 CRC organoid and F06 CAF mono and co-culture. […] Cell viability is reported both mono and co-culture models.
Colon cancer organoid [3] = test: Optimized Dual-Glo assay to identify co-culture induced drug vulnerabilities using donated chemical probes and chemogenomics kinase set in O20 CRC organoid and F20 CAF mono and co-culture. […] Cell viability is reported both mono and co-culture models.
[4] = Culture type Co-Culture, Transduced with Lucferase2-P2A-EGFP lentivirus
[5] = Culture type Co-Culture, Transduced with Renilla-dsRed lentivirus
[6] = Culture type Mono-Culture, Transduced with Lucferase2-P2A-EGFP lentivirus
[7] = Culture type Mono-Culture, Transduced with Renilla-dsRed lentivirus

Row | SMILES | Cell Viability (Colon cancer organoid [1]; [4]) | Cell Viability (Colon cancer organoid [1]; [5]) | Cell Viability (Colon cancer organoid [1]; [6]) | Cell Viability (Colon cancer organoid [1]; [7]) | Cell Viability (Colon cancer organoid [2]; [4]) | Cell Viability (Colon cancer organoid [2]; [5]) | Cell Viability (Colon cancer organoid [2]; [6]) | Cell Viability (Colon cancer organoid [2]; [7]) | Cell Viability (Colon cancer organoid [3]; [4]) | Cell Viability (Colon cancer organoid [3]; [5]) | Cell Viability (Colon cancer organoid [3]; [6]) | Cell Viability (Colon cancer organoid [3]; [7])
1 | COc1c(C)cc(NC(=O)c2nn(Cc3ccc(F)cc3)c3c2CN(C(=O)c2ccc[nH]2)C[C@]3(C)C(N)=O)cc1C | 89.068% | 129.679% | 87.8638% | 102.007% | 66.5012% | 112.674% | 87.4341% | 110.624% | 106.451% | 95.1299% | 138.387% | 102.921%
2 | COc1cc(-c2cn(C)c(=O)c3cnccc23)c(OC)cc1CN(C)C | 86.2085% | 136.409% | 67.8836% | 114.194% | 79.252% | 108.934% | 73.0791% | 96.9165% | 61.2069% | 139.676% | 83.2777% | 82.5544%
3 | C[C@H]1CCCN1Cc1nc2cc(NC(=O)c3ccc4cnccc4c3)ccc2[nH]1 | 60.7566% | 146.013% | 100.332% | 105.964% | 122.515% | 131.721% | 188.522% | 107.295% | 98.572% | 149.477% | 83.1729% | 94.0651%
4 | C[C@@H](c1cccc(C#N)c1)n1cc(Cl)cc(C(N)=O)c1=N.Cl | 96.0836% | 104.787% | 81.7502% | 103.626% | 92.5611% | 127.503% | 97.2998% | 98.9566% | 64.263% | 72.4154% | 105.334% | 111.16%
5 | O=C(NCCN1CCOCC1)c1ccc2c(c1)C(=O)c1ccc(Nc3ccc(F)c(NC(=O)c4ccccc4)c3)cc1CC2 [FS-694] | 102.563% | 98.243% | 144.079% | 81.8914% | 67.8661% | 67.282% | 66.9088% | 83.7797% | 66.004% | 119.038% | 94.4809% | 79.2545%
6 | Cc1cnc(-c2cc(Cl)ccc2F)cc1-n1c(=O)n(CC(N)=O)c2cnccc21 [TP-008] | 97.8203% | 116.603% | 124.72% | 98.4627% | 13.7504% | 213.932% | 47.0575% | 82.299% | 64.1613% | 114.054% | 79.9392% | 106.384%
7 | CN1CCN(c2ccc(OC(F)(F)F)c(Nc3ncc4c(n3)-c3c(c(C(N)=O)nn3CCO)CC4)c2)CC1 [ONVANSERTIB] | 3.512% | 162.986% | 6.811% | 81.4434% | 2.834% | 160.245% | 4.275% | 93.5315% | 2% | 184.086% | 2.415% | 100.341%
8 | C=CC(=O)N1CCC([C@@H]2CCNc3c(C(N)=O)c(-c4ccc(Oc5ccccc5)cc4)nn32)CC1 [ZANUBRUTINIB] | 47.5574% | 261.02% | 57.577% | 123.54% | 36.1998% | 136.235% | 10.7372% | 131.234% | 8.425% | 202.782% | 10.0679% | 138.33%
9 | CC(C)C(=O)Nc1n[nH]c2cc(-c3cccc(NS(=O)(=O)C4CC4)c3)ccc12 | 100.589% | 100.218% | 136.967% | 94.5263% | 155.711% | 134.333% | 107.561% | 124.696% | 85.5363% | 102.387% | 113.542% | 124.62%
